Laboratory results: patent US9346809B2 (LEO PHARMA A/S, priority 2009, dated 2016)
Read-outs that look alike come from different tables or passages of the source.

Legend:
Type in all cases: biochemical
[1] = biological target: T1, JAK1 (aa 850-1154, catalytic domain, GST-tag) (Homo sapiens, UniProt P23458); assay: JAK kinase assay (HTRF, phosphorylation of TK substrate-biotin), JAK1; details: ATP at Km (7 μM)
T1 construct: JAK1 (aa 850-1154) and TYK2 (aa 871-1187) are expressed with an N-terminally fused GST-tag; GST (N); purchased Carna Biosciences, Inc; host or cells: baculovirus expression system
Outline: (§1)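 Baculovirus-expressed catalytic domains phosphorylated 1 μM TK substrate-biotin in 50 mM Hepes pH 7.0 with ATP at Km (JAK1 7 μM, JAK2 4 μM, JAK3 2 μM, TYK2 13 μM) for 20-30 min at RT. EDTA/KF stop, streptavidin-XL665 plus cryptate antibody overnight; HTRF signal gave EC50.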

[2] = biological target: T2, JAK2 (catalytic domain, His-tag) (Homo sapiens, UniProt O60674); assay: JAK kinase assay (HTRF, phosphorylation of TK substrate-biotin), JAK2; details: ATP at Km (4 μM)
T2 construct: All four purified enzymes contain only the catalytic domain; His (N); purchased Carna Biosciences, Inc; host or cells: baculovirus expression system
Outline: as §1

[3] = biological target: T3, JAK3 (catalytic domain, His-tag) (Homo sapiens, UniProt P52333); assay: JAK kinase assay (HTRF, phosphorylation of TK substrate-biotin), JAK3; details: ATP at Km (2 μM)
T3 construct: All four purified enzymes contain only the catalytic domain; His (N); purchased Carna Biosciences, Inc; host or cells: baculovirus expression system
Outline: as §1

[4] = biological target: T4, TYK2 (aa 871-1187, catalytic domain, GST-tag) (Homo sapiens, UniProt P29597); assay: JAK kinase assay (HTRF, phosphorylation of TK substrate-biotin), TYK2; details: ATP at Km (13 μM)
T4 construct: JAK1 (aa 850-1154) and TYK2 (aa 871-1187) are expressed with an N-terminally fused GST-tag; GST (N); purchased Carna Biosciences, Inc; host or cells: baculovirus expression system
T4 sequence (P29597 871-1187): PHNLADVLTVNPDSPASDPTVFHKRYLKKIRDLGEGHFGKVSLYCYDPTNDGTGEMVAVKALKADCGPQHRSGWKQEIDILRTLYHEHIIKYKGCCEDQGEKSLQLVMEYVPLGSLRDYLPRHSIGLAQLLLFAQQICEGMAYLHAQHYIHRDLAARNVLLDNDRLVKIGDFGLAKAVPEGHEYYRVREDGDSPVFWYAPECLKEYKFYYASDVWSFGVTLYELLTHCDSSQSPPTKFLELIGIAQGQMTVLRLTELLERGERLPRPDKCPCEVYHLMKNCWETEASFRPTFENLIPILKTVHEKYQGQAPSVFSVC
Outline: as §1

[5] = read-out: JAK1 kinase inhibitory activity (EC50 indicator)
[6] = read-out: JAK2 kinase inhibitory activity (EC50 indicator)
[7] = read-out: JAK3 kinase inhibitory activity (EC50 indicator)
[8] = read-out: TYK2 kinase inhibitory activity (EC50 indicator)
[9] = HTRF assay, read-out: JAK1 kinase inhibitory activity (EC50 indicator)
[10] = HTRF assay, read-out: JAK2 kinase inhibitory activity (EC50 indicator)
[11] = HTRF assay, read-out: JAK3 kinase inhibitory activity (EC50 indicator)
[12] = HTRF assay, read-out: TYK2 kinase inhibitory activity (EC50 indicator)

T3 sequence (P52333 822-1111 limits assumed): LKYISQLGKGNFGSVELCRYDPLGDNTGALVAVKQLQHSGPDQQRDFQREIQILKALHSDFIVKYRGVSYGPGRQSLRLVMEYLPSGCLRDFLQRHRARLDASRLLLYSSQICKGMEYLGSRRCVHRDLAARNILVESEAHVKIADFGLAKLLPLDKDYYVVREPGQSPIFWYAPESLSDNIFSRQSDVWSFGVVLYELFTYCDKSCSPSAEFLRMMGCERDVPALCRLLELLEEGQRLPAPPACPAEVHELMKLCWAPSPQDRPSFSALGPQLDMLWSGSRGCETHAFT
T2 sequence (O60674 849-1124 limits assumed): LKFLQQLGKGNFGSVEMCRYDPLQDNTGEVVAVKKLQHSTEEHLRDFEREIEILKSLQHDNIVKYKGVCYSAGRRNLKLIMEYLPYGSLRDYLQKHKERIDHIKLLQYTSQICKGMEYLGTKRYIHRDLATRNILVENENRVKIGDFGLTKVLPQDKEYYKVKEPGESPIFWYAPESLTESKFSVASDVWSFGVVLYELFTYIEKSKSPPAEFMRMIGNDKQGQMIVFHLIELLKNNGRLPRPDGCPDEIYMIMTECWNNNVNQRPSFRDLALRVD
T1 sequence (P23458 850-1154): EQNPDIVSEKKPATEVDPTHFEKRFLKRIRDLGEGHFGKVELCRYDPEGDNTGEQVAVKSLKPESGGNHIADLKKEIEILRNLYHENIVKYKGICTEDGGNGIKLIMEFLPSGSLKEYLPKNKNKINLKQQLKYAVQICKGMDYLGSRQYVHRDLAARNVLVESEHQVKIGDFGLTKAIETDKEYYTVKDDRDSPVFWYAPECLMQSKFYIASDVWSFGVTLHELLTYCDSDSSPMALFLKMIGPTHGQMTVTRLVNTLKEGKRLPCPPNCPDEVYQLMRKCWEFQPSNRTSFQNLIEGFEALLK

## CC(=O)N1CCC(C(=O)N2CCN(c3ncnc4[nH]ccc34)CC23CC3)CC1 [Example 43, 1-{4-[7-(7H-Pyrrolo[2,3-d]pyrimidin-4-yl)-4,7-diazaspiro[2.5]octane-4-carbonyl]piperidin-1-yl}ethanone]
[1]; [5]
  EC50: 0.1 to 0.5 µM
[2]; [6]
  EC50: 0.1 to 0.5 µM
[3]; [7]
  EC50: 0.1 to 0.5 µM
[4]; [8]
  EC50: > 0.5 µM

## O=C(c1ccc(S(=O)(=O)NCc2ccco2)cc1)N1CCN(c2ncnc3[nH]ccc23)CC12CC2 [Example 426, N-Furan-2-ylmethyl-4-[7-(7H-pyrrolo[2,3-d]pyrimidin-4-yl)-4,7-diaza-spiro[2.5]octane-4-carbonyl]-benzenesulfonamide]
[1]; [9]
  EC50: < 0.1 µM
[2]; [10]
  EC50: < 0.1 µM
[3]; [11]
  EC50: < 0.1 µM
[4]; [12]
  EC50: 0.1 to 0.5 µM

## N#CCCNS(=O)(=O)c1ccc(C(=O)N2CCN(c3ncnc4[nH]ccc34)CC23CC3)cc1 [Example 395, N-(2-Cyano-ethyl)-4-[7-(7H-pyrrolo[2,3-d]pyrimidin-4-yl)-4,7-diaza-spiro[2.5]octane-4-carbonyl]-benzenesulfonamide]
[1]; [9]
  EC50: < 0.1 µM
[2]; [10]
  EC50: < 0.1 µM
[3]; [11]
  EC50: < 0.1 µM
[4]; [12]
  EC50: < 0.1 µM

## O=C(C(=O)N1CCN(c2ncnc3[nH]ccc23)CC12CC2)c1cccs1 [Example 205, 1-[7-(7H-Pyrrolo[2,3-d]pyrimidin-4-yl)-4,7-diaza-spiro[2.5]oct-4-yl]-2-thiophen-2-yl-ethane-1,2-d lone]
[1]; [5]
  EC50: < 0.1 µM
[2]; [6]
  EC50: < 0.1 µM
[3]; [7]
  EC50: < 0.1 µM
[4]; [8]
  EC50: 0.1 to 0.5 µM

## O=C(c1cnccn1)N1[C@@H]2CC[C@H]1CN(c1ncnc3[nH]ccc13)C2 [Example 421, Pyrazin-2-yl-[3-(7H-pyrrolo[2,3-d]pyrimidin-4-yl)-3,8-diaza-bicyclo[3.2.1]oct-8-yl]-methanone]
[1]; [9]
  EC50: < 0.1 µM
[2]; [10]
  EC50: < 0.1 µM
[3]; [11]
  EC50: 0.1 to 0.5 µM
[4]; [12]
  EC50: > 0.5 µM

## N#CC1(C(=O)N2CCN(c3ncnc4[nH]ccc34)CC23CC3)CC1 [Example 165, 1-[7-(7H-Pyrrolo[2,3-d]pyrimidin-4-yl)-4,7-diaza-spiro[2.5]octane-4-carbonyl]-cyclopropanecarbonitrile]
[1]; [5]
  EC50: < 0.1 µM
[2]; [6]
  EC50: < 0.1 µM
[3]; [7]
  EC50: < 0.1 µM
[4]; [8]
  EC50: 0.1 to 0.5 µM

## CS(=O)(=O)c1ccc(C(=O)N2CCN(c3ncnc4[nH]ccc34)CC23CC3)c(Cl)c1 [Example 382, (2-Chloro-4-methanesulfonyl-phenyl)-[7-(7H-pyrrolo[2,3-d]pyrimidin-4-yl)-4,7-diaza-spiro[2.5]oct-4-yl]-methanone]
[1]; [9]
  EC50: < 0.1 µM
[2]; [10]
  EC50: < 0.1 µM
[3]; [11]
  EC50: > 0.5 µM
[4]; [12]
  EC50: 0.1 to 0.5 µM

## O=C(c1cc2ccccc2s1)N1CCN(c2ccnc3[nH]ccc23)CC12CC2 [Example 82, Benzo[b]thiophen-2-yl-[7-(1H-pyrrolo[2,3-b]pyridin-4-yl)-4,7-diaza-spiro[2.5]oct-4-yl]-methanone]
[1]; [5]
  EC50: 0.1 to 0.5 µM
[2]; [6]
  EC50: 0.1 to 0.5 µM
[3]; [7]
  EC50: > 0.5 µM
[4]; [8]
  EC50: > 0.5 µM

## O=C(c1cnc2ccccc2n1)N1CCN(c2ncnc3[nH]cc(Cl)c23)CC12CC2 [Example 317, [7-(5-Chloro-7H-pyrrolo[2,3-d]pyrimidin-4-yl)-4,7-diaza-spiro[2.5]oct-4-yl]-quinoxalin-2-yl-methanone]
[1]; [9]
  EC50: > 0.5 µM
[2]; [10]
  EC50: 0.1 to 0.5 µM
[3]; [11]
  EC50: > 0.5 µM
[4]; [12]
  EC50: > 0.5 µM

## O=C(c1cccs1)N1CCN(c2ncnc3[nH]ccc23)CC12CC2 [Example 211, [7-(7H-Pyrrolo[2,3-d]pyrimidin-4-yl)-4,7-diaza-spiro[2.5]oct-4-yl]-thiophen-2-yl-methanone]
[1]; [9]
  EC50: < 0.1 µM
[2]; [10]
  EC50: < 0.1 µM
[3]; [11]
  EC50: < 0.1 µM
[4]; [12]
  EC50: 0.1 to 0.5 µM

## Cc1ccc(C(=O)N2C[C@@H]3C[C@H]2CN3c2ncnc3[nH]ccc23)s1 [Example 265, (5-Methyl-thiophen-2-yl)-[5-(7H-pyrrolo[2,3-d]pyrimidin-4-yl)-2,5-diaza-bicyclo[2.2.1]hept-2-yl]-methanone]
[1]; [9]
  EC50: > 0.5 µM
[2]; [10]
  EC50: > 0.5 µM
[3]; [11]
  EC50: > 0.5 µM
[4]; [12]
  EC50: > 0.5 µM

## O=C(C1CCS(=O)(=O)CC1)N1CCN(c2ncnc3[nH]ccc23)CC12CC2 [Example 13, (1,1-Dioxo-hexahydro-1lambda*6*-thiopyran-4-yl)[7-(7H-pyrrolo[2,3-d]pyrimidin-4-yl)-4,7-diazaspiro[2.5]oct-4-yl]methanone]
[1]; [5]
  EC50: 0.1 to 0.5 µM
[2]; [6]
  EC50: 0.1 to 0.5 µM
[3]; [7]
  EC50: 0.1 to 0.5 µM
[4]; [8]
  EC50: > 0.5 µM

## COc1cnc2[nH]ccc2c1N1CCN(C(=O)c2cccc(C#N)c2)C2(CC2)C1 [Example 287, 3-[7-(5-Methoxy-1H-pyrrolo[2,3-b]pyridin-4-yl)-4,7-diaza-spiro[2.5]octane-4-carbonyl]-benzonitrile]
[1]; [9]
  EC50: > 0.5 µM
[2]; [10]
  EC50: 0.1 to 0.5 µM
[3]; [11]
  EC50: 0.1 to 0.5 µM
[4]; [12]
  EC50: > 0.5 µM

## O=C(c1cnc2ccccc2n1)N1CCN(c2ncnc3[nH]ccc23)CC12CC2 [Example 161, [7-(7H-Pyrrolo[2,3-d]pyrimidin-4-yl)-4,7-diaza-spiro[2.5]oct-4-yl]-quinoxalin-2-yl-methanone]
[1]; [5]
  EC50: < 0.1 µM
[2]; [6]
  EC50: < 0.1 µM
[3]; [7]
  EC50: < 0.1 µM
[4]; [8]
  EC50: < 0.1 µM

## S=C(c1cc2c(s1)CCC2)N1CCN(c2ncnc3[nH]ccc23)CC12CC2 [Example 440, (5,6-Dihydro-4H-cyclopenta[b]thiophen-2-yl)-[7-(7H-pyrrolo[2,3-d]Pyrimidin-4-yl)-4,7-diaza-spiro[2.5]oct-4-yl]-methanethione]
[1]; HTRF assay, read-out: JAK1 kinase inhibitory activity (EC50)
  EC50: < 0.1 µM
[2]; HTRF assay, read-out: JAK2 kinase inhibitory activity (EC50)
  EC50: < 0.1 µM
[3]; HTRF assay, read-out: JAK3 kinase inhibitory activity (EC50)
  EC50: 0.1 to 0.5 µM
[4]; HTRF assay, read-out: TYK2 kinase inhibitory activity (EC50)
  EC50: 0.1 to 0.5 µM

## CCCS(=O)(=O)Nc1ccc(C(=O)N2CCN(c3ncnc4[nH]ccc34)CC23CC3)cc1 [Example 431, Propane-1-sulfonic acid {4-[7-(7H-pyrrolo[2,3-d]pyrimidin-4-yl)-4,7-diaza-spiro[2.5]octane-4-carbonyl]-phenyl}-amide]
[1]; [9]
  EC50: < 0.1 µM
[2]; [10]
  EC50: < 0.1 µM
[3]; [11]
  EC50: 0.1 to 0.5 µM
[4]; [12]
  EC50: 0.1 to 0.5 µM

## Cc1c(C(=O)N2CCN(c3ccnc4[nH]ccc34)CC23CC3)sc2ccccc12 [Example 232, (3-Methyl-benzo[b]thiophen-2-yl)-[7-(1H-pyrrolo[2,3-b]pyridin-4-yl)-4,7-diaza-spiro[2.5]oct-4-yl]-methanone]
[1]; [9]
  EC50: < 0.1 µM
[2]; [10]
  EC50: < 0.1 µM
[3]; [11]
  EC50: > 0.5 µM
[4]; [12]
  EC50: 0.1 to 0.5 µM

## O=C(c1ccc2[nH]c(=O)ccc2c1)N1[C@@H]2CC[C@@H]1CN(c1ncnc3[nH]ccc13)C2 [Example 355, 6-[3-(7H-Pyrrolo[2,3-d]pyrimidin-4-yl)-3,8-diaza-bicyclo[3.2.1]octane-8-carbonyl]-1H-quinolin-2-one]
[1]; [9]
  EC50: < 0.1 µM
[2]; [10]
  EC50: < 0.1 µM
[3]; [11]
  EC50: 0.1 to 0.5 µM
[4]; [12]
  EC50: > 0.5 µM

## COCCCNC(=S)N1[C@@H]2CC[C@H]1CN(c1ncnc3[nH]ccc13)C2 [Example 39, 3-(7H-Pyrrolo[2,3-d]pyrimidin-4-yl)-3,8-diazabicyclo[3.2.1]octane-8-carbothioic acid (3-methoxy-propyl)amide]
[1]; [5]
  EC50: > 0.5 µM
[2]; [6]
  EC50: 0.1 to 0.5 µM
[3]; [7]
  EC50: > 0.5 µM
[4]; [8]
  EC50: > 0.5 µM

## O=C(c1cc2c(s1)CCC2)N1CCN(c2ncnc3[nH]ccc23)CC12CC2 [Example 61, (5,6-Dihydro-4H-cyclopenta[b]thiophen-2-yl)[7-(7H-pyrrolo[2,3-d]pyrimidin-4-yl)-4,7-diaza-spiro[2.5]oct-4-yl]-methanone]
[1]; [5]
  EC50: < 0.1 µM
[2]; [6]
  EC50: < 0.1 µM
[3]; [7]
  EC50: < 0.1 µM
[4]; [8]
  EC50: < 0.1 µM
